Patent US10059701B2 (Merck Patent GmbH, priority 2015, dated 2018)
pIC50: −log10 of the molar value.

Experiments:
[1] = target: T1, IRAK1 (Homo sapiens, UniProt P51617); assay: IRAK1 enzymatic assay (ADP-Glo luminescence); assay type: biochemical; conditions: purified human recombinant His-TEV-IRAK1 (194-712)
T1 construct: His-TEV-IRAK1 (194-712); His (N); TEV cleavage site (N)
Procedure, shortened: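 Recombinant human His-TEV-IRAK1 (194-712), 0.3 μg/ml, preincubated 15 min at RT with compounds (10 μM to 0.5 nM) in 50 mM Hepes pH 7.0, 10 mM MgCl2, 2 mM DTT, 0.1% BSA. ATP-started reaction run 2 hours at RT; ADP formed from ATP hydrolysis/autophosphorylation read by ADP-Glo luminescence.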

[2] = target: T2, IRAK4 (Homo sapiens, UniProt Q9NWZ3); assay: IRAK4 enzymatic assay (ADP-Glo luminescence); assay type: biochemical; conditions: purified human recombinant His-TEV-IRAK4 (1-460), ATP 2 μM
T2 construct: His-TEV-IRAK4 (1-460); His (N); TEV cleavage site (N)
T2 sequence (Q9NWZ3 1-460): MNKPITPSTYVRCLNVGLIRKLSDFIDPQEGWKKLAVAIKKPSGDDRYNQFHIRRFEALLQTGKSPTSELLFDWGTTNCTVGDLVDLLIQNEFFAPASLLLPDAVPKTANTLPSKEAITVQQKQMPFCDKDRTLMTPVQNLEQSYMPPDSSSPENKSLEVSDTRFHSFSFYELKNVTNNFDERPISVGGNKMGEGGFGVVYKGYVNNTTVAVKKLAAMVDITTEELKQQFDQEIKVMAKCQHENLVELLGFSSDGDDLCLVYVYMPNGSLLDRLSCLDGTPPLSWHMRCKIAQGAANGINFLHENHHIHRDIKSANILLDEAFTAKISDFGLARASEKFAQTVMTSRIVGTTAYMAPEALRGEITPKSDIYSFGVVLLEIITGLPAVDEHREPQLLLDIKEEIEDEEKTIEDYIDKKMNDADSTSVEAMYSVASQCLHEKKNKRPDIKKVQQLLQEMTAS
Procedure, shortened: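 Recombinant His-TEV-IRAK4 (1-460) at 0.3 μg/ml preincubated 15 min at RT with compounds (10 μM to 0.5 nM) in Hepes pH 7.0 buffer with MgCl2/MnCl2. Reaction started with 2 μM ATP and 300 nM STK1-biotin peptide, run 2 h at RT. ADP formed read by ADP-Glo luminescence.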

T1 sequence (P51617 194-712): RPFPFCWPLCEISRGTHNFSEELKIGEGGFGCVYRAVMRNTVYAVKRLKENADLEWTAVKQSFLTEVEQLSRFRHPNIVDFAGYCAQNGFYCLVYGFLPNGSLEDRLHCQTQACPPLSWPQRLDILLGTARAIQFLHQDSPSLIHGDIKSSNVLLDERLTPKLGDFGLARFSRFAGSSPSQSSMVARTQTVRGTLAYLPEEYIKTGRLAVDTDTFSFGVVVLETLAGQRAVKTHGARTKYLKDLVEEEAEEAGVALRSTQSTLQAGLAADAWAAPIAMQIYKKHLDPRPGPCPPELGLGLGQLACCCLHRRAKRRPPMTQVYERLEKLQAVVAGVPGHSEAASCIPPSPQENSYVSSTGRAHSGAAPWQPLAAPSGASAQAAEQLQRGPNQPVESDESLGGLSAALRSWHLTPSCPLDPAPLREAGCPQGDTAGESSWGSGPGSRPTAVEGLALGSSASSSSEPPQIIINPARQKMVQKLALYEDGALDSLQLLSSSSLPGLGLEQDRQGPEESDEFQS

pIC50 [1] | pIC50 [2] | SMILES
≥ 7.00 | ≥ 7.00 | O=C(/N=c1\[nH]c2cc(N3CCOCC3=O)ccc2n1CCCCO)c1cccc(C(F)F)c1 [Compound 26, (E)-3-(difluoromethyl)-N-(1-(4-hydroxybutyl)-5-(3-oxomorpholino)-1H-benzo[d]imidazol-2(3H)-ylidene)benzamide]
6.00 to 7.00 | 6.00 to 7.00 | N#Cc1cccc(C(=O)/C=C2\Nc3cc(N4CCOCC4=O)ccc3N2CCCO)c1 [Compound 146, (E)-3-(2-(1-(3-hydroxypropyl)-5-(3-oxomorpholino)-1H-benzo[d]imidazol-2(3H)-ylidene)acetyl)benzonitrile]
< 6.00 | ≥ 7.00 | O=C(/N=c1\[nH]c2cc(N3CCCOC3=O)ccc2n1CC(F)(F)C(F)(F)F)c1cccc(C(F)(F)F)c1 [Compound 177, (E)-N-(5-(2-oxo-1,3-oxazinan-3-yl)-1-(2,2,3,3,3-pentafluoropropyl)-1H-benzo[d]imidazol-2(3H)-ylidene)-3-(trifluoromethyl)benzamide]
< 6.00 | 6.00 to 7.00 | CSCCCCn1/c(=N/C(=O)c2cccc(C(F)F)c2)[nH]c2cc(N3CCOCC3=O)ccc21 [Compound 89, (E)-3-(difluoromethyl)-N-(1-(4-(methylthio)butyl)-5-(3-oxomorpholino)-1H-benzo[d]imidazol-2(3H)-ylidene)benzamide]
≥ 7.00 | ≥ 7.00 | O=C(/N=c1\[nH]c2cc(N3CCCOC3=O)ccc2n1CCCO)c1cccc(C(F)F)c1 [Compound 29, (E)-3-(difluoromethyl)-N-(1-(3-hydroxypropyl)-5-(2-oxo-1,3-oxazinan-3-yl)-1H-benzo[d]imidazol-2(3H)-ylidene)benzamide]
≥ 7.00 | ≥ 7.00 | O=C(/N=c1\[nH]c2cc(N3CCOCCC3=O)ccc2n1CCCO)c1cccc(C(F)F)c1 [Example 187, (E)-3-(difluoromethyl)-N-(1-(3-hydroxypropyl)-5-(5-oxo-1,4-oxazepan-4-yl)-1H-benzo[d]imidazol-2(3H)-ylidene)benzamide]
6.00 to 7.00 | ≥ 7.00 | C[S+]([O-])CCCn1/c(=N/C(=O)c2cccc(C(F)F)c2)[nH]c2cc(N3CCOCC3=O)ccc21 (centres unmarked) [Compound 91, (E)-3-(difluoromethyl)-N-(1-(3-(methylsulfinyl)propyl)-5-(3-oxomorpholino)-1H-benzo[d]imidazol-2(3H)-ylidene)benzamide]
6.00 to 7.00 | ≥ 7.00 | O=C(/N=c1\[nH]c2cc(N3CC4CC(N4)C3=O)ccc2n1CCCO)c1cccc(C(F)F)c1 (centres unmarked) [Example 213, (E)-3-(difluoromethyl)-N-(1-(3-hydroxypropyl)-5-(2-oxo-3,6-diazabicyclo[3.1.1]heptan-3-yl)-1H-benzo[d]imidazol-2(3H)-ylidene)benzamide]
≥ 7.00 | ≥ 7.00 | N#Cc1cccc(C(=O)/N=c2\[nH]c3cc(N4CCCOC4=O)ccc3n2CCCO)c1 [Compound 58, (E)-3-cyano-N-(1-(3-hydroxypropyl)-5-(2-oxo-1,3-oxazinan-3-yl)-1H-benzo[d]imidazol-2(3H)-ylidene)benzamide]
≥ 7.00 | ≥ 7.00 | CS(=O)(=O)CCCn1/c(=N/C(=O)c2cccc(C(F)F)c2)[nH]c2cc(N3CCOCC3=O)ccc21 [Compound 90, (E)-3-(difluoromethyl)-N-(1-(3-(methylsulfonyl)propyl)-5-(3-oxomorpholino)-1H-benzo[d]imidazol-2(3H)-ylidene)benzamide]
6.00 to 7.00 | ≥ 7.00 | Cc1cccc(C(=O)/N=c2\[nH]c3cc(N4CCOCC4=O)ccc3n2CCCO)c1 [Compound 105, (E)-N-(1-(3-hydroxypropyl)-5-(3-oxomorpholino)-1H-benzo[d]imidazol-2(3H)-ylidene)-3-methylbenzamide]
≥ 7.00 | ≥ 7.00 | CS(=O)(=O)c1cccc(C(=O)/N=c2\[nH]c3cc(N4CCOCC4=O)ccc3n2CC2(CO)CC2)c1 [Compound 13, (E)-N-(1-((1-(hydroxymethyl)cyclopropyl)methyl)-5-(3-oxomorpholino)-1H-benzo[d]imidazol-2(3H)-ylidene)-3-(methylsulfonyl)benzamide]
6.00 to 7.00 | ≥ 7.00 | CC1(C)C(=O)N(c2ccc3c(c2)[nH]/c(=N\C(=O)c2cccc(C(F)(F)F)c2)n3CCCO)CCN1C1CC1 [Compound 194, (E)-N-(5-(4-cyclopropyl-3,3-dimethyl-2-oxopiperazin-1-yl)-1-(3-hydroxypropyl)-1H-benzo[d]imidazol-2(3H)-ylidene)-3-(trifluoromethyl)benzamide]
≥ 7.00 | ≥ 7.00 | CC(=O)N1CCC(n2/c(=N/C(=O)c3cccc(C(F)(F)F)c3)[nH]c3cc(N4CCOCC4=O)ccc32)CC1 [Compound 130, (E)-N-(1-(1-acetylpiperidin-4-yl)-5-(3-oxomorpholino)-1H-benzo[d]imidazole-2(3H)-ylidene)-3-(trifluoromethyl)benzamide]
6.00 to 7.00 | ≥ 7.00 | O=C(/N=c1\[nH]c2cc(N3CCOCC3=O)cc(F)c2n1CCCO)c1cccc(C(F)(F)F)c1 [Example 210, (E)-N-(7-fluoro-1-(3-hydroxypropyl)-5-(3-oxomorpholino)-1H-benzo[d]imidazol-2(3H)-ylidene)-3-(trifluoromethyl)benzamide]
6.00 to 7.00 | ≥ 7.00 | O=C(/N=c1\[nH]c2cc(N3CCCOC3=O)ccc2n1C1CC(F)(F)C1)c1cccc(C(F)(F)F)c1 [Compound 156, (E)-N-(1-(3,3-difluorocyclobutyl)-5-(2-oxo-1,3-oxazinan-3-yl)-1H-benzo[d]imidazol-2(3H)-ylidene)-3-(trifluoromethyl)benzamide]
≥ 7.00 | ≥ 7.00 | COc1cc2c(cc1N1CCOCC1=O)[nH]/c(=N\C(=O)c1cccc(C(F)(F)F)c1)n2CCCO [Compound 76, (E)-N-(1-(3-hydroxypropyl)-6-methoxy-5-(3-oxomorpholino)-1H-benzo[d]imidazol-2(3H)-ylidene)-3-(trifluoromethyl)benzamide]
≥ 7.00 | ≥ 7.00 | O=C(/N=c1\[nH]c2cc(N3C(=O)COCC34CC4)ccc2n1CCCO)c1cccc(C(F)(F)F)c1 [Example 189, (E)-N-(1-(3-hydroxypropyl)-5-(5-oxo-7-oxa-4-azaspiro[2.5]octan-4-yl)-1H-benzo[d]imidazol-2(3H)-ylidene)-3-(trifluoromethyl)benzamide]
6.00 to 7.00 | ≥ 7.00 | CC1(C)COC(=O)N1c1ccc2c(c1)[nH]/c(=N\C(=O)c1cccc(C(F)F)c1)n2CCCO [Example 196, (E)-3-(difluoromethyl)-N-(5-(4,4-dimethyl-2-oxooxazolidin-3-yl)-1-(3-hydroxypropyl)-1H-benzo[d]imidazol-2(3H)-ylidene)benzamide]
6.00 to 7.00 | ≥ 7.00 | CC(=O)c1cccc(C(=O)/N=c2\[nH]c3cc(N4CCOCC4=O)ccc3n2CCCO)c1 [Example 231, (E)-3-acetyl-N-(1-(3-hydroxypropyl)-5-(3-oxomorpholino)-1H-benzo[d]imidazol-2(3H)-ylidene)benzamide]
≥ 7.00 | ≥ 7.00 | O=C(/N=c1\[nH]c2cc(N3CCOCC3=O)ccc2n1CCCO)c1ccc(F)c(C(F)(F)F)c1 [Compound 5, (E)-4-fluoro-N-(1-(3-hydroxypropyl)-5-(3-oxomorpholino)-1H-benzo[d]imidazol-2(3H)-ylidene)-3-(trifluoromethyl)benzamide]
6.00 to 7.00 | ≥ 7.00 | O=C(/N=c1\[nH]c2cc(N3CCOCC3=O)ccc2n1[C@H]1CCCC[C@@H]1CO)c1cccc(C(F)F)c1 (racemic) [Compound 119, rac-(E)-3-(difluoromethyl)-N-(1-((1S,2S)-2-(hydroxymethyl)cyclohexyl)-5-(3-oxomorpholino)-1H-benzo[d]imidazol-2(3H)-ylidene)benzamide]
6.00 to 7.00 | ≥ 7.00 | O=C(/N=c1\[nH]c2cc(N3CCOCC3=O)ccc2n1CCCO)c1cccc(C(F)(F)F)c1F [Compound 4, (E)-2-fluoro-N-(1-(3-hydroxypropyl)-5-(3-oxomorpholino)-1H-benzo[d]imidazol-2(3H)-ylidene)-3-(trifluoromethyl)benzamide]
6.00 to 7.00 | ≥ 7.00 | O=C(/N=c1\[nH]c2cc(N3CCOCC3=O)ccc2n1CCCCO)c1cccc(C(F)(F)F)c1 [Compound 17, (E)-N-(1-(4-hydroxybutyl)-5-(3-oxomorpholino)-1H-benzo[d]imidazol-2(3H)-ylidene)-3-(trifluoromethyl)benzamide]
< 6.00 | 6.00 to 7.00 | O=C(/N=c1\[nH]c2cc(N3CCOCC3=O)ccc2n1[C@H]1CCCC[C@H]1CO)c1cccc(C(F)(F)F)c1 (racemic) [Compound 116, rac-(E)-N-(1-((1S,2R)-2-(hydroxymethyl)cyclohexyl)-5-(3-oxomorpholino)-1H-benzo[d]imidazol-2(3H)-ylidene)-3-(trifluoromethyl)benzamide]
